Source: paper PMC12040169 (PLOS Biology, 2025)

Experiment: in vitro
Details: human, hela cells, % viability

SMILES	viability at 28.5 h, 10 µM
O=C(CCCn1cc([N+](=O)[O-])cn1)Nc1cc(C(F)(F)F)ccc1Cl [CBK293987]	108%
O=C(CSc1nnc(-c2ccco2)[nH]1)Nc1cccc(Cl)c1 [CBK293990]	96.7%
N#Cc1c(NC(=O)CSc2nc(=O)cc(N)n2CCc2ccccc2)sc2c1CCCC2 [CBK293993]	82.4%
CCOc1ccccc1NC(=O)c1cc2cccnc2n(Cc2ccc(Cl)cc2)c1=O [CBK294395]	109%
CC(=O)N1N=C(COc2ccc(C)cc2)OC1c1ccc(Br)cc1 (centres unmarked) [CBK294396]	103%
CC(=O)N1N=C(COc2ccc3c(c2)OCO3)OC1c1ccc(C)cc1 (centres unmarked) [CBK294397]	83%
O=c1cc(CSc2nnc(-c3ccccc3)[nH]2)nc2[nH]cnn12 [CBK294398]	96.1%
O=C(Nc1nnc(SCc2cc(=O)n3nc[nH]c3n2)s1)c1ccc(F)cc1 [CBK294399]	90.2%
Cc1ccc(CNC(=O)c2nnc(C(=O)Nc3cccc(Cl)c3)s2)o1 [CBK294404]	95.2%
O=C(NCCN1CCOCC1)c1nnc(C(=O)Nc2cccc(Cl)c2)s1 [CBK294405]	93.9%
O=C(Nc1cccc(Cl)c1)c1nnc(C(=O)NC2CCCCC2)s1 [CBK294406]	92.6%
CCCCNC(=O)c1nnc(C(=O)Nc2cccc(Cl)c2)s1 [CBK294407]	87.1%
Cc1c(C(=O)Nc2cccc(C(F)(F)F)c2)sc2nc(-c3ccccc3)cn12 [CBK294408]	87.9%
CC(C)Cc1cnc2c(c1SCc1ccc(F)cc1)c(=O)n(C)c(=O)n2C [CBK294409]	95.6%
Cc1cc(=O)[nH]c(SCc2cc(=O)c3ccccc3[nH]2)n1 [CBK294410]	86.3%
CN(C(=O)CSc1nc2ccccc2nc1Cc1ccc(Cl)cc1)C1CCCCC1 [CBK294411]	104%
CCOc1ccc(CN(Cc2cc(=O)n3nc(-c4ccccc4)sc3n2)CC(C)C)cc1 [CBK294412]	103%
COCCn1c(SCc2ccc([N+](=O)[O-])cc2)nc2c([nH]c3ccccc32)c1=O [CBK294415]	90%
COc1ccc(C2C(C(=O)Nc3ccc(C)cc3)=C(C)Nc3ncnn32)cc1OC (centres unmarked) [CBK294416]	90.9%
Cn1c(NC(=O)c2ccccc2[N+](=O)[O-])cc(=O)n(C)c1=O [CBK294417]	84%
O=C1CCc2cc(S(=O)(=O)NC(c3ccccc3)c3ccccc3)cc3c2N1CCC3 [CBK294418]	95.6%
CC1C(=O)N2CCCc3cc(S(=O)(=O)NCc4ccc5c(c4)OCO5)cc1c32 (centres unmarked) [CBK294419]	107%

SMILES	viability at 28.5 h, 10 µM
COc1cccc2sc(N(Cc3cccnc3)C(=O)c3ccc(S(=O)(=O)N(C)C)cc3)nc12 [CBK294420]	103%
O=C(CCS(=O)(=O)c1ccccc1)N(Cc1cccnc1)c1nc2c(F)cccc2s1 [CBK294422]	81.5%
COc1ccc2sc(N(Cc3cccnc3)C(=O)CCc3ccccc3)nc2c1 [CBK294423]	81.2%
CSc1ccccc1NC(=O)c1cccn(Cc2ccc(C)cc2)c1=O [CBK294426]	87%
COc1ccc(-c2ccc(OCCNC(=O)c3cccc(F)c3)nn2)cc1 [CBK294428]	87.1%
O=C(NCCOc1ccc(-c2ccc(F)cc2)nn1)c1ccc(Br)o1 [CBK294429]	83.1%
COc1cccc(NC(=O)Cn2cc(OC)c(=O)cc2CN2CCOCC2)c1 [CBK294430]	87.2%
CN1CC(=O)N(CC(=O)N2CC=C(c3ccccc3)CC2)c2ccccc2C1=O [CBK294433]	88%
Cc1ccc(NC(=O)C2CC(=O)Nc3nc(SCc4ccccc4C)[nH]c(=O)c32)c(C)c1 (centres unmarked) [CBK294438]	91%
CCCCOc1ccccc1C1CC(=O)Nc2c(-c3ccccc3F)csc21 (centres unmarked) [CBK294439]	81%
CC(C)CCNC(=O)c1cccc(-n2c(=S)[nH]c3cc(Cl)ccc3c2=O)c1 [CBK294444]	107%
O=C(CCCn1nnc2ccccc2c1=O)NCc1cccc(Cl)c1 [CBK294446]	82.8%
Cc1ccc(-n2ncc3c(Nc4c(C)n(C)n(-c5ccccc5)c4=O)ncnc32)c(C)c1 [CBK294449]	82.6%
O=C(c1ccc(S(=O)(=O)c2ccc(F)cc2)c([N+](=O)[O-])c1)N1CCCCCC1 [CBK294453]	78.3%
O=C(CCNC(=O)c1ccc(Br)o1)NCc1ccccc1Cl [CBK294454]	81.5%
O=C(O)c1[nH]c2ccccc2c1/C=N/Cc1ccccc1Cl [CBK294456]	98.7%
COc1ccccc1CNC(=O)c1cc(-c2ccccc2)nc2ccccc12 [CBK294458]	104%
CSc1cccc(NC(=S)N2CCC(N(C)C(C)C)CC2)c1 [CBK294463]	86.8%
O=C(NC1CCCC1)c1cc(=O)n(Cc2ccc(Cl)cc2)c2ccccc12 [CBK294464]	104%
COc1ccc(-c2cc(C(=O)NC(C)c3ccccc3)c3cc(C(C)C)ccc3n2)cc1 (centres unmarked) [CBK294466]	101%
Cc1ccc(CNC(=O)C2CCN(S(=O)(=O)N3CCOCC3)CC2)cc1 [CBK294467]	103%
CCC1CCC2(CC1)NC(=O)N(Cc1cc(-c3ccccc3)on1)C2=O (centres unmarked) [CBK294977]	90.1%

SMILES	viability at 28.5 h, 10 µM
COc1ccc2cc(CNc3ccc(F)c([N+](=O)[O-])c3)c(Cl)nc2c1 [CBK295133]	93.1%
CC(C)NC(=O)c1cccc2c1CCCN2Cc1nc2ccccc2o1 [CBK295135]	101%
COc1ccc2c(CC(=O)Nc3sccc3C(N)=O)coc2c1 [CBK295137]	101%
COc1ccc(O)c(C(=O)c2cnn(-c3ccccn3)c2)c1 [CBK295141]	97.9%
O=c1[nH]nc(SCc2csc(COc3ccc(Cl)cc3)n2)n1C1CC1 [CBK295146]	87.9%
COc1ccc(NS(=O)(=O)c2cc(C(=O)O)cc(C)c2C)cc1OC [CBK295148]	82.9%
COc1ccc2c(CC(=O)Nc3cccc(-c4csc(C)n4)c3)coc2c1 [CBK295149]	94%
Cn1cnnc1SCC(=O)Nc1c(F)cccc1F [CBK295150]	88.2%
O=C(c1ccccn1)N(CCc1ccccc1)c1nc2ccccc2s1 [CBK295151]	97.5%
CC(NCC(=O)N1c2ccccc2NC(=O)CC1C)c1ccc(-c2ccccc2)cc1 (centres unmarked) [CBK295155]	84.2%
C=CCOc1ccc(CN(C)Cc2nc3cc(C(=O)O)ccc3c(=O)[nH]2)cc1 [CBK295156]	101%
CC(NCc1nc(=O)c2sccc2[nH]1)c1ccc2c(c1)OCCO2 (centres unmarked) [CBK295157]	88.4%
Cc1ccc(C(=O)NC(C)c2nc3ccccc3n2Cc2ccc(C(=O)O)o2)cc1 (centres unmarked) [CBK295159]	107%
O=C(CSc1nnnn1CC1CCCO1)N1CC=C(c2ccccc2)CC1 (centres unmarked) [CBK295160]	82%
CCN(CC)S(=O)(=O)c1ccc2c(c1)CCCN2C(=O)c1ccc(C#N)cc1 [CBK295161]	85.9%
CC(=O)Nc1ccc(NS(=O)(=O)c2ccc(C)c(C(=O)O)c2)cc1 [CBK295162]	85.9%
Cc1cc(C)cc(-c2nnc(SCCC(=O)NC(N)=O)o2)c1 [CBK295164]	107%
CCOC(=O)C1CCN(Cn2nc(-c3cccs3)oc2=S)CC1 [CBK295165]	85.9%
CC(C)c1nn(CN(C)Cc2ccccc2)c(=S)[nH]1 [CBK295166]	102%
O=C(NCc1cn2ccccc2n1)c1ccc(C2SCCS2)cc1 [CBK295167]	83.5%
CCCn1c(SC(C)C(=O)Nc2ccc(S(=O)(=O)NC(C)C)cc2)n[nH]c1=O (centres unmarked) [CBK295169]	87.9%
Cc1ccc(SCCC(=O)NC(CCC(=O)O)C(=O)O)cc1 (centres unmarked) [CBK295173]	88%

SMILES	viability at 28.5 h, 10 µM
Cc1ccc(SCCC(=O)NC(CC(=O)O)C(=O)O)cc1 (centres unmarked) [CBK295174]	103%
O=C(Cc1csc(-c2ccc(F)cc2)n1)Nc1ccc(F)cc1 [CBK295177]	82.3%
Cc1[nH]c(C(=O)NCCc2ccco2)c(C)c1C(=O)OC(C)C [CBK295180]	84.1%
CN(C)c1cccc(C(=O)Nc2ccccc2N2CCOCC2)c1 [CBK295184]	76.2%
CN(CC(=O)Nc1ccccc1N1CCCC1)Cc1cnn(Cc2ccccc2)c1 [CBK295187]	105%
CN(CC(=O)Nc1ccc(N(C)C)cc1)Cc1ccc(F)cc1 [CBK295188]	86.1%
Cn1c(SCc2cc(-c3ccc(Cl)cc3)no2)nnc1-c1ccco1 [CBK295193]	81.9%
Cc1ccnc2nc(C(=O)Nc3ccc4c(c3)CCC4)nn12 [CBK295194]	74.9%
NC(=O)COc1ccc(C2Nc3ccccc3C(=O)N2C2CC2)cc1 (centres unmarked) [CBK295198]	98.2%
Cn1nc(-c2ccc(Cl)cc2)cc1NC(=O)Cn1nnc(-c2ccc(F)cc2)n1 [CBK295203]	82.7%
Cc1ccc(C)c(-n2nnnc2SC(C)C(=O)N2CCCC2)c1 (centres unmarked) [CBK295204]	79.9%
C=CCn1c(-c2sc(NC(=O)c3ccc(C)c(C)c3)nc2C)n[nH]c1=S [CBK295294]	88.7%
O=C(O)c1cccc(NS(=O)(=O)c2ccc(S(=O)(=O)N3CCCCC3)cc2)c1 [CBK295295]	101%
O=C(O)c1cc(Cl)c(OCc2cc(-c3ccccc3)no2)c(Cl)c1 [CBK295297]	86.7%
C=CCn1c(Cc2csc(NC(=O)c3ccc(C(C)=O)s3)n2)n[nH]c1=S [CBK295299]	77%
CCOc1ccc(-c2nc(CC(=O)O)cs2)cc1 [CBK295300]	87.7%
Cc1nn(CC(C)C)c(C)c1CCC(=O)N(C)Cc1c(C)nn(-c2ccccc2)c1C [CBK295301]	108%
Cc1cc(COC(=O)c2nn(-c3ccc(F)cc3)c3c2CCCC3)on1 [CBK295305]	105%
CCOC(=O)c1ccc(S(=O)(=O)Nc2cc(C(=O)O)ccc2F)cc1 [CBK295308]	84%
Cc1cc(C(=O)CSc2nnc(C3CC3)[nH]2)c(C)n1-c1cccc(C(F)(F)F)c1 [CBK295310]	80.6%
